Reference: patent publication US20220267272A1, “PYRIDINIUM SALT AND PEST CONTROL AGENT” (Nippon Soda Co., Ltd., priority 2019, published 2022)
Structures can show the parent of a compound that is named as a salt. Where two headings read alike, the source gives them in different places. Blank lines part the entries; values can stand above or below the molecule they belong to.

Columns and labels:
[1] = test system: Helicoverpa armigera; assay: Efficacy test against Helicoverpa armigera (cabbage leaf disc); format: in vivo; details: foliar, 144 h
[2] = test system: Spodoptera litura; assay: Efficacy test against Spodoptera litura (cabbage leaf disc); format: in vivo; details: foliar, 144 h
Method: (§1) 5 parts by mass of a compound according to the present invention, 93.6 parts of dimethylformamide, and 1.4 parts of polyoxyethylene alkyl aryl ether were mixed and dissolved to obtain an emulsion (1) containing 5% by mass of the active ingredient.
(§2) The emulsion (1) was diluted with water such that the amount of the compound according to the present invention became 125 ppm by mass. A cabbage leaf disc was immersed in the diluted solution for 30 seconds. The cabbage leaf disc was air-dried and then put in a petri dish, followed by leaving five second-instar larvae of Spodoptera litura therein. The petri dish was placed in a thermostatic chamber at a temperature of 25° C. and a humidity of 60%. After six days had passed from leaving the larvae, life or death was assessed and the mortality was calculated. The test was repeated twice.

[3] = test system: Mythimna separata; assay: Efficacy test (2) against Mythimna separata (corn leaf disc); format: in vivo; details: foliar, 144 h, 125 ppm by mass, corn leaf disc immersed 30 seconds, second-instar larvae, 25° C., humidity 60%, after six days
Method: as §1
as §2, with “corn” for “cabbage”, “was” for “was air-dried and then”, “and” for “followed by leaving”, “Mythimna separata were left” for “Spodoptera litura”

[4] = test system: Plutella xylostella; assay: Efficacy test against Plutella xylostella (cabbage leaf disc); format: in vivo; details: foliar, 72 h, 125 ppm by mass, cabbage leaf disc immersed 30 seconds, second-instar larvae, 25° C., humidity 60%, after three days
[5] = 125 ppm by mass, cabbage leaf disc immersed 30 seconds, second-instar larvae, 25° C., humidity 60%, after six days, read-out: mortality

Structure (SMILES): O=C([N-][n+]1ccccc1)c1ccc(C2CC2c2ccc(OC(F)(F)F)cc2)cc1 (stereo not shown) [Compound C2-1]
mortality at 125 ppm [1, 5]: ≥ 80%
mortality at 125 ppm [2, 5]: ≥ 80%

melting point: 101 to 104 °C
Structure (SMILES): O=C([N-][n+]1ccccc1)c1ccc(OC/C=C\Cl)cc1 [Compound C2-7]

melting point: 281 to 283 °C
Structure (SMILES): O=C([N-][n+]1ccccc1)c1ccc(C(=O)Nc2ccc(OC(F)(F)F)cc2)cc1 [Compound C1-1, pyridin-1-ium-1-yl(4-((4-(trifluoromethoxy)phenyl)carbamoyl)benzoyl)amide]

melting point: 287 to 289 °C
Structure (SMILES): O=C([N-][n+]1ccccc1)c1ccc(NC(=O)c2ccc(C(F)(F)F)cc2)cc1

melting point: 142 to 143 °C
Structure (SMILES): O=C([N-][n+]1ccccc1)c1ccc(/C=N/OCC(F)(F)F)cc1 [Compound C1-5, (E)-pyridin-1-ium-1-yl(4-(((2,2,2-trifluoroethoxy)imino)methyl)benzoyl)amide]

Structure (SMILES): O=C([N-][n+]1ccccc1)c1ccc(C#Cc2ccc(C(F)(F)F)cc2)cc1 [Compound C1-29, pyridin-1-ium-1-yl(4-((4-(trifluoromethyl)phenyl)ethynyl)benzoyl) amide]
mortality at 125 ppm [3]: ≥ 80%
mortality at 125 ppm [4]: ≥ 80%
mortality at 125 ppm [2, 5]: ≥ 80%

melting point: 204 to 206 °C
Structure (SMILES): Cl.O=C(N[n+]1ccccc1)c1ccc(NCc2ccc(OC(F)(F)F)cc2)cc1.[Cl-]

Structure (SMILES): O=C([N-][n+]1ccccc1)c1ccc(C(=O)c2ccc(OC(F)(F)F)cc2)cc1 [Compound C1-30, 1-(4-(4-(trifluoromethoxy)benzoyl)benzamide)pyridinium intramolecular salt]
mortality at 125 ppm [4]: ≥ 80%

melting point: 199 to 203 °C
Structure (SMILES): O=C([N-][n+]1ccccc1)c1ccc(NS(=O)(=O)c2ccc(C(F)(F)F)cc2)cc1

melting point: 180 to 183 °C
Structure (SMILES): O=C([N-][n+]1ccccc1)c1ccc(Cc2ccc(C(F)(F)F)cc2)cc1 [Compound C1-7, pyridin-1-ium-1-yl(4-(4-(trifluoromethyl)benzyl)benzoyl)amide]

melting point: 111 to 113 °C
Structure (SMILES): O=C([N-][n+]1ccccc1)c1ccc(Oc2ccc(OC(F)(F)F)cc2)cc1 [Compound C1-8, pyridin-1-ium-1-yl(4-(4-(trifluoromethoxy)phenoxy)benzoyl)amide]

melting point: 140 to 144 °C
Structure (SMILES): Cc1cccc[n+]1[N-]C(=O)c1ccc(C2CC2c2ccc(Cl)cc2)cc1 (stereo not shown) [Compound C2-3]

melting point: 132 to 134 °C
Structure (SMILES): O=C([N-][n+]1ccccc1)c1ccc(SCC(F)(F)C(F)(F)C(F)(F)C(F)(F)C(F)(F)F)cc1 (as salt: salt) [Compound C1-18, 1-(4-((2,2,3,3,4,4,5,5,6,6,6-undecafluorohexyl)thio)benzamide) pyridinium intramolecular salt]

Structure (SMILES): O=C([N-][n+]1ccccc1)c1ccc(C2CC2c2ccc(Cl)cc2)cc1 (stereo not shown) [Compound C2-4]
mortality at 125 ppm [3]: ≥ 80%

Structure (SMILES): O=C([N-][n+]1ccccc1)c1ccc(C2CC2c2ccc(C(F)(F)F)cc2)cc1 (stereo not shown) [Compound C2-2]
mortality at 125 ppm [1, 5]: ≥ 80%
mortality at 125 ppm [2, 5]: ≥ 80%

Structure (SMILES): O=C([N-][n+]1ccccc1)c1ccc(OCC(F)(F)C(F)(F)C(F)(F)C(F)(F)F)cc1 [Compound C1-19, 1-(4-(2,2,3,3,4,4,5,5,5-nonafluoropentoxy)benzamide)pyridinium intramolecular salt]
mortality at 125 ppm [2]: ≥ 80%

Structure (SMILES): O=C([N-][n+]1ccccc1)c1ccc(/C=C/C(F)(F)F)cc1 [Compound C1-25, 1-(4-((1E)-3,3,3-trifluoro-1-propen-1-yl)benzamide)pyridinium intramolecular salt]
mortality at 125 ppm [2, 5]: ≥ 80%

Structure (SMILES): CC(C)(C)OC(=O)Nc1ccc(C(=O)[N-][n+]2ccccc2)cc1 [Compound C1-57, (4-((tert-butoxycarbonyl)amino)benzoyl)(pyridin-1-ium-1-yl)amide]
melting point: 251 to 253 °C

melting point: 183 to 184 °C
Structure (SMILES): CC(C)(C)OC(=O)N(Cc1ccc(OC(F)(F)F)cc1)c1ccc(C(=O)[N-][n+]2ccccc2)cc1 [Compound C2-9]

melting point: 161 to 162 °C
Structure (SMILES): O=C([N-][n+]1ccccc1)c1ccc(OC/C=C/Cl)cc1 [Compound C2-8]

Structure (SMILES): O=C([N-][n+]1ccccc1)c1ccc(/C=C/c2ccc(OC(F)(F)F)cc2)cc1 [Compound C2-5]
mortality at 125 ppm [4]: ≥ 80%
mortality at 125 ppm [2, 5]: ≥ 80%

Structure (SMILES): O=C([N-][n+]1ccccc1)c1ccc(OC(F)(F)C(F)OC(F)(F)C(F)(F)C(F)(F)F)cc1 (stereo not shown) [Compound C1-11, 1-(4-(1,1,2-trifluoro-2-(perfluoropropoxy)ethoxy)benzamide) pyridinium intramolecular salt]
mortality at 125 ppm [1]: ≥ 80%
mortality at 125 ppm [2]: ≥ 80%

Structure (SMILES): O=C([N-][n+]1ccccc1)c1ccc(/C=C/c2ccc(C(F)(F)F)cc2)cc1 [Compound C1-31, (E)-Pyridin-1-ium-1-yl(4-(4-(trifluoromethyl)styryl)benzoyl)amide]
mortality at 125 ppm [3]: ≥ 80%
mortality at 125 ppm [4]: ≥ 80%
mortality at 125 ppm [2, 5]: ≥ 80%
